Measurements reported in patent US20100099561A1, “HETEROBICYCLIC ALKYLTHIO-BRIDGED ISOXAZOLINES” (E.I. DU PONT DE NEMOURS AND COMPANY, priority 2008, published 2010).

Columns and labels:
Format in all cases: in vivo
[1] = test system: barnyardgrass (Echinochloa crus-galli); assay: Test A preemergence, barnyardgrass; settings: 0 to 100 scale (0 no effect, 100 complete control)
Text: (§1) Seeds of barnyardgrass (Echinochloa crus-galli), large crabgrass (Digitaria sanguinalis), giant foxtail (Setaria faberi), morningglory (Ipomoea spp.), pigweed (Amaranthus retroflexus), velvetleaf (Abutilon theophrasti), wheat (Triticum aestivum), and corn (Zea mays) were planted into a blend of loam soil and sand and treated preemergence with a directed soil spray using test chemicals formulated in a non-phytotoxic solvent mixture which included a surfactant. At the same time these species were also treated with postemergence applications of test compounds formulated in the same manner. Plants ranged in height from two to ten cm and were in the one- to two-leaf stage for the postemergence treatment. Treated plants and untreated controls were maintained in a greenhouse for approximately ten days, after which time all treated plants were compared to untreated controls and visually evaluated for injury. Plant response ratings, summarized in Table A, are based on a 0 to 100 scale where 0 is no effect and 100 is complete control. A dash (-) response means no test result.

[2] = test system: large crabgrass (Digitaria sanguinalis); assay: Test A preemergence, large crabgrass; settings: 0 to 100 scale (0 no effect, 100 complete control)
Text: as §1

[3] = test system: giant foxtail (Setaria faberi); assay: Test A preemergence, giant foxtail; settings: 0 to 100 scale (0 no effect, 100 complete control)
Text: as §1

[4] = test system: morningglory (Ipomoea spp.); assay: Test A preemergence, morningglory; settings: 0 to 100 scale (0 no effect, 100 complete control)
Text: as §1

[5] = test system: pigweed (Amaranthus retroflexus); assay: Test A preemergence, pigweed; settings: 0 to 100 scale (0 no effect, 100 complete control)
Text: as §1

[6] = test system: velvetleaf (Abutilon theophrasti); assay: Test A preemergence, velvetleaf; settings: 0 to 100 scale (0 no effect, 100 complete control)
Text: as §1

[7] = test system: wheat (Triticum aestivum); assay: Test A preemergence, wheat; settings: 0 to 100 scale (0 no effect, 100 complete control)
Text: as §1

corn (Zea mays) [8] = assay: Test A preemergence, corn; settings: 0 to 100 scale (0 no effect, 100 complete control)
Text: as §1

[9] = test system: barnyardgrass (Echinochloa crus-galli); assay: Test A postemergence, barnyardgrass; settings: 0 to 100 scale (0 no effect, 100 complete control)
Text: as §1

[10] = test system: large crabgrass (Digitaria sanguinalis); assay: Test A postemergence, large crabgrass; settings: 0 to 100 scale (0 no effect, 100 complete control)
Text: as §1

[11] = test system: giant foxtail (Setaria faberi); assay: Test A postemergence, giant foxtail; settings: 0 to 100 scale (0 no effect, 100 complete control)
Text: as §1

[12] = test system: morningglory (Ipomoea spp.); assay: Test A postemergence, morningglory; settings: 0 to 100 scale (0 no effect, 100 complete control)
Text: as §1

[13] = test system: pigweed (Amaranthus retroflexus); assay: Test A postemergence, pigweed; settings: 0 to 100 scale (0 no effect, 100 complete control)
Text: as §1

[14] = test system: velvetleaf (Abutilon theophrasti); assay: Test A postemergence, velvetleaf; settings: 0 to 100 scale (0 no effect, 100 complete control)
Text: as §1

[15] = test system: wheat (Triticum aestivum); assay: Test A postemergence, wheat; settings: 0 to 100 scale (0 no effect, 100 complete control)
Text: as §1

corn (Zea mays) [16] = assay: Test A postemergence, corn; settings: 0 to 100 scale (0 no effect, 100 complete control)
Text: as §1

rice (Oryza sativa) = assay: Test B flooded paddy test, rice; settings: Flood, scale 0 to 100
Text: (§2) Plant species in the flooded paddy test consisted of rice (Oryza sativa), umbrella sedge (Cyperus difformis), ducksalad (Heteranthera limosa) and barnyardgrass (Echinochloa crus-galli) grown to the 2-leaf stage for testing. At time of treatment, test pots were flooded to 3 cm above the soil surface, treated by application of test compounds directly to the paddy water, and then maintained at that water depth for the duration of the test. Treated plants and controls were maintained in a greenhouse for 13 to 15 days, after which time all species were compared to controls and visually evaluated. Plant response ratings, summarized in Table B, are based on a scale of 0 to 100 where 0 is no effect and 100 is complete control. A dash (-) response means no test result.

[17] = test system: umbrella sedge (Cyperus difformis); assay: Test B flooded paddy test, umbrella sedge; settings: Flood, scale 0 to 100
Text: as §2

[18] = test system: ducksalad (Heteranthera limosa); assay: Test B flooded paddy test, ducksalad; settings: Flood, scale 0 to 100
Text: as §2

[19] = test system: barnyardgrass (Echinochloa crus-galli); assay: Test B flooded paddy test, barnyardgrass; settings: Flood
Text: as §2

CC1(C)CC(S(=O)(=O)Cc2c(C(F)(F)F)nc3cccnn3c2=O)=NO1 [Compound 45]
Plant response rating, Barnyardgrass ([1]; 125 g ai/ha): 20 | Plant response rating, Barnyardgrass ([1]; 500 g ai/ha): 90 | Plant response rating, Crabgrass, Large ([2]; 125 g ai/ha): 20 | Plant response rating, Crabgrass, Large ([2]; 500 g ai/ha): 90 | Plant response rating, Foxtail, Giant ([3]; 125 g ai/ha): 30 | Plant response rating, Foxtail, Giant ([3]; 500 g ai/ha): 90 | Plant response rating, Morningglory ([4]; 125 g ai/ha): 0 | Plant response rating, Morningglory ([4]; 500 g ai/ha): 0 | Plant response rating, Pigweed ([5]; 500 g ai/ha): 0 | Plant response rating, Velvetleaf ([6]; 125 g ai/ha): 0 | Plant response rating, Velvetleaf ([6]; 500 g ai/ha): 0 | Plant response rating, Wheat ([7]; 125 g ai/ha): 0 | Plant response rating, Wheat ([7]; 500 g ai/ha): 10 | Plant response rating, Corn (corn (Zea mays) [8]; 125 g ai/ha): 0 | Plant response rating, Corn (corn (Zea mays) [8]; 500 g ai/ha): 0 | Plant response rating, Barnyardgrass ([9]; 125 g ai/ha): 30 | Plant response rating, Barnyardgrass ([9]; 500 g ai/ha): 70 | Plant response rating, Crabgrass, Large ([10]; 125 g ai/ha): 20 | Plant response rating, Crabgrass, Large ([10]; 500 g ai/ha): 70 | Plant response rating, Foxtail, Giant ([11]; 125 g ai/ha): 20 | Plant response rating, Foxtail, Giant ([11]; 500 g ai/ha): 60 | Plant response rating, Morningglory ([12]; 125 g ai/ha): 0 | Plant response rating, Morningglory ([12]; 500 g ai/ha): 30 | Plant response rating, Pigweed ([13]; 125 g ai/ha): 0 | Plant response rating, Pigweed ([13]; 500 g ai/ha): 10 | Plant response rating, Velvetleaf ([14]; 125 g ai/ha): 0 | Plant response rating, Velvetleaf ([14]; 500 g ai/ha): 0 | Plant response rating, Wheat ([15]; 125 g ai/ha): 0 | Plant response rating, Wheat ([15]; 500 g ai/ha): 0 | Plant response rating, Corn (corn (Zea mays) [16]; 125 g ai/ha): 0 | Plant response rating, Corn (corn (Zea mays) [16]; 500 g ai/ha): 0 | Plant response rating, Rice (rice (Oryza sativa); 31 g ai/ha): 0 | Plant response rating, Rice (rice (Oryza sativa); 62 g ai/ha): 0 | Plant response rating, Rice (rice (Oryza sativa); 125 g ai/ha): 0 | Plant response rating, Rice (rice (Oryza sativa); 250 g ai/ha): 0 | Plant response rating, Sedge, Umbrella ([17]; 31 g ai/ha): 0 | Plant response rating, Sedge, Umbrella ([17]; 62 g ai/ha): 0 | Plant response rating, Sedge, Umbrella ([17]; 125 g ai/ha): 0 | Plant response rating, Sedge, Umbrella ([17]; 250 g ai/ha): 0 | Plant response rating, Ducksalad ([18]; 31 g ai/ha): 0 | Plant response rating, Ducksalad ([18]; 62 g ai/ha): 0 | Plant response rating, Ducksalad ([18]; 125 g ai/ha): 0 | Plant response rating, Ducksalad ([18]; 250 g ai/ha): 0 | Plant response rating, Barnyardgrass ([19]; 31 g ai/ha, scale 0 to 100): 0 | Plant response rating, Barnyardgrass ([19]; 62 g ai/ha, scale 0 to 100): 0 | Plant response rating, Barnyardgrass ([19]; 125 g ai/ha, scale 0 to 100): 0 | Plant response rating, Barnyardgrass ([19]; 250 g ai/ha, scale 0 to 100 (0 no effect, 100 complete control)): 0

CC1(C)CC(SCc2c(C(F)(F)F)nc3n(c2=O)CCC3)=NO1 [Compound 9, 3-[[(4,5-dihydro-5,5-dimethyl-3-isoxazolyl)thio]methyl]-7,8-dihydro-2-(trifluoromethyl)pyrrolo[1,2-α]pyrimidin-4(6H)-one]
Plant response rating, Barnyardgrass ([1]; 1000 g ai/ha): 0 | Plant response rating, Crabgrass, Large ([2]; 1000 g ai/ha): 0 | Plant response rating, Foxtail, Giant ([3]; 1000 g ai/ha): 0 | Plant response rating, Morningglory ([4]; 1000 g ai/ha): 0 | Plant response rating, Pigweed ([5]; 1000 g ai/ha): 0 | Plant response rating, Velvetleaf ([6]; 1000 g ai/ha): 0 | Plant response rating, Wheat ([7]; 1000 g ai/ha): 0 | Plant response rating, Corn (corn (Zea mays) [8]; 1000 g ai/ha): 0 | Plant response rating, Barnyardgrass ([9]; 1000 g ai/ha): 0 | Plant response rating, Crabgrass, Large ([10]; 1000 g ai/ha): 0 | Plant response rating, Foxtail, Giant ([11]; 1000 g ai/ha): 0 | Plant response rating, Morningglory ([12]; 1000 g ai/ha): 30 | Plant response rating, Pigweed ([13]; 1000 g ai/ha): 10 | Plant response rating, Velvetleaf ([14]; 1000 g ai/ha): 10 | Plant response rating, Wheat ([15]; 1000 g ai/ha): 0 | Plant response rating, Corn (corn (Zea mays) [16]; 1000 g ai/ha): 0
